# In ChEMBL document CHEMBL1201861, “Genomics of Drug Sensitity in Cancer screening data, Wellcome Trust Sanger Institute”:
# Legend:
# Assay in all cases: cells
# [1] = test system: COLO-741; format: functional, cell-based, Homo sapiens; conditions: Homo sapiens, COLO-741
# Description: SANGER: Inhibition of human COLO-741 cell growth in a cell viability assay.
# [2] = test system: CTB-1; format: functional, cell-based; conditions: Homo sapiens
# Description: SANGER: Inhibition of human CTB-1 cell growth in a cell viability assay.
# [3] = test system: CaR-1; format: functional, cell-based, Homo sapiens; conditions: Homo sapiens, CaR-1;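 note: growth inhibition of human CaR-1 cancer cells, read out with a cell viability assay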
# Description: SANGER: Inhibition of human CaR-1 cell growth in a cell viability assay.
# [4] = test system: EFM-19; format: functional, cell-based, Homo sapiens; conditions: Homo sapiens, EFM-19;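 note: growth inhibition of human EFM-19 cells, measured in a cell viability assay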
# Description: SANGER: Inhibition of human EFM-19 cell growth in a cell viability assay.
# [5] = test system: EGI-1; format: functional, cell-based, Homo sapiens; conditions: Homo sapiens, EGI-1;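 note: cell viability readout used to gauge growth inhibition of EGI-1 cells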
# Description: SANGER: Inhibition of human EGI-1 cell growth in a cell viability assay.
# [6] = test system: ES5; format: functional, cell-based, Homo sapiens; conditions: Homo sapiens, ES5;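 note: growth inhibition of human ES5 cells, read out by a cell viability assay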
# Description: SANGER: Inhibition of human ES5 cell growth in a cell viability assay.
# [7] = test system: HCE-T; format: functional, cell-based, Homo sapiens; conditions: Homo sapiens, HCE-T;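 note: cell viability assay read-out, reporting inhibition of HCE-T cell growth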
# Description: SANGER: Inhibition of human HCE-T cell growth in a cell viability assay.
# [8] = test system: HDLM-2; format: functional, cell-based; conditions: Homo sapiens;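 note: cell viability assay measuring suppression of HDLM-2 proliferation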
# Description: SANGER: Inhibition of human HDLM-2 cell growth in a cell viability assay.
# [9] = test system: HEC-1; format: functional, cell-based, Homo sapiens; conditions: Homo sapiens, HEC-1;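 note: growth inhibition of the cell line, read out with a cell viability assay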
# Description: SANGER: Inhibition of human HEC-1 cell growth in a cell viability assay.
# [10] = test system: Huh-7; format: functional, cell-based, Homo sapiens; conditions: Homo sapiens, Huh-7;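 note: HuH-7 cell growth inhibition, read out with a cell viability assay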
# Description: SANGER: Inhibition of human HuH-7 cell growth in a cell viability assay.
# [11] = test system: KG-1; format: functional, cell-based; conditions: Homo sapiens;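 note: growth inhibition of KG-1 cells, read out by a cell viability assay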
# Description: SANGER: Inhibition of human KG-1 cell growth in a cell viability assay.
# [12] = test system: LK-2; format: functional, cell-based, Homo sapiens; conditions: Homo sapiens, LK-2;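 note: growth inhibition of LK-2 cells, read out with a viability assay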
# Description: SANGER: Inhibition of human LK-2 cell growth in a cell viability assay.
# [13] = test system: LS-513; format: functional, cell-based, Homo sapiens; conditions: Homo sapiens, LS-513
# Description: SANGER: Inhibition of human LS-513 cell growth in a cell viability assay.
# [14] = test system: Lu-65; format: functional, cell-based; conditions: Homo sapiens;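 note: growth inhibition of Lu-65 cancer cells, read out by a cell viability assay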
# Description: SANGER: Inhibition of human LU-65 cell growth in a cell viability assay.
# [15] = test system: M14; format: functional, cell-based, Homo sapiens; conditions: Homo sapiens, M14;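 note: growth inhibition of M14 cells, read out with a cell viability assay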
# Description: SANGER: Inhibition of human M14 cell growth in a cell viability assay.
# [16] = test system: MC116; format: functional, cell-based; conditions: Homo sapiens;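 note: growth inhibition of MC116 cells, read out with a cell viability assay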
# Description: SANGER: Inhibition of human MC116 cell growth in a cell viability assay.
# [17] = test system: MHH-PREB-1; format: functional, cell-based; conditions: Homo sapiens;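 note: cell viability assay measuring inhibition of proliferation of human MHH-PREB-1 cells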
# Description: SANGER: Inhibition of human MHH-PREB-1 cell growth in a cell viability assay.
# [18] = test system: MKN-1; format: functional, cell-based, Homo sapiens; conditions: Homo sapiens, MKN-1;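 note: growth inhibition of human MKN1 cells, read out by a cell viability measurement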
# Description: SANGER: Inhibition of human MKN1 cell growth in a cell viability assay.
# [19] = test system: NCI-H1693; format: functional, cell-based, Homo sapiens; conditions: Homo sapiens, NCI-H1693;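 note: growth inhibition of the human cell line, read out with a cell viability assay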
# Description: SANGER: Inhibition of human NCI-H1693 cell growth in a cell viability assay.
# [20] = test system: NCI-H1838; format: functional, cell-based, Homo sapiens; conditions: Homo sapiens, NCI-H1838;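 note: growth inhibition of NCI-H1838 cells, determined with a cell viability readout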
# Description: SANGER: Inhibition of human NCI-H1838 cell growth in a cell viability assay.
# [21] = test system: NCI-H2342; format: functional, cell-based; conditions: Homo sapiens;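 note: growth inhibition of the cancer cell line, determined with a cell viability assay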
# Description: SANGER: Inhibition of human NCI-H2342 cell growth in a cell viability assay.
# [22] = test system: NCI-H28; format: functional, cell-based, Homo sapiens; conditions: Homo sapiens, NCI-H28;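 note: growth inhibition of human NCI-H28 cells, read out as cell viability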
# Description: SANGER: Inhibition of human NCI-H28 cell growth in a cell viability assay.
# [23] = test system: NCI-H520; format: functional, cell-based, Homo sapiens; conditions: Homo sapiens, NCI-H520;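 note: growth inhibition of NCI-H520 cells, measured by a cell viability assay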
# Description: SANGER: Inhibition of human NCI-H520 cell growth in a cell viability assay.
# [24] = test system: NCI-H650; format: functional, cell-based, Homo sapiens; conditions: Homo sapiens, NCI-H650;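 note: growth inhibition of NCI-H650 cells, read out by a viability assay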
# Description: SANGER: Inhibition of human NCI-H650 cell growth in a cell viability assay.
# [25] = test system: NCI-H747; format: functional, cell-based; conditions: Homo sapiens;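 note: growth inhibition of human NCI-H747 cells, read out by a cell viability assay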
# Description: SANGER: Inhibition of human NCI-H747 cell growth in a cell viability assay.
# [26] = test system: NCI-N87; format: functional, cell-based, Homo sapiens; conditions: Homo sapiens, NCI-N87;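 note: growth inhibition of human NCI-N87 cells, read out with a cell viability assay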
# Description: SANGER: Inhibition of human NCI-N87 cell growth in a cell viability assay.
# [27] = test system: NKM-1; format: functional, cell-based; conditions: Homo sapiens;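 note: growth inhibition of NKM-1 cells, read out with a cell viability assay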
# Description: SANGER: Inhibition of human NKM-1 cell growth in a cell viability assay.
# [28] = test system: NTERA-2-cl-D1; format: functional, cell-based, Homo sapiens; conditions: Homo sapiens, NTERA-2-cl-D1;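 note: inhibition of cell growth, measured with a cell viability assay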
# Description: SANGER: Inhibition of human NTERA-S-cl-D1 cell growth in a cell viability assay.
# [29] = test system: RCC10RGB; format: functional, cell-based, Homo sapiens; conditions: Homo sapiens, RCC10RGB;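 note: growth inhibition of human RCC10RGB cells, read out by a cell viability assay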
# Description: SANGER: Inhibition of human RCC10RGB cell growth in a cell viability assay.
# [30] = test system: RKO; format: functional, cell-based, Homo sapiens; conditions: Homo sapiens, RKO;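 note: growth inhibition of human RKO cells, read out with a cell viability assay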
# Description: SANGER: Inhibition of human RKO cell growth in a cell viability assay.
# [31] = test system: RVH-421; format: functional, cell-based, Homo sapiens; conditions: Homo sapiens, RVH-421
# Description: SANGER: Inhibition of human RVH-421 cell growth in a cell viability assay.
# [32] = test system: RXF 393; format: functional, cell-based; conditions: Homo sapiens;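 note: growth inhibition of human RXF 393 cells, read out with a cell viability assay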
# Description: SANGER: Inhibition of human RXF393 cell growth in a cell viability assay.
# [33] = test system: SCC-4; format: functional, cell-based, Homo sapiens; conditions: Homo sapiens, SCC-4;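 note: growth inhibition of human SCC-4 cells, read out as cell viability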
# Description: SANGER: Inhibition of human SCC-4 cell growth in a cell viability assay.
# [34] = test system: SCC-9; format: functional, cell-based, Homo sapiens; conditions: Homo sapiens, SCC-9;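 note: Read-out is a cell viability assay, with values giving inhibition of cell growth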
# Description: SANGER: Inhibition of human SCC-9 cell growth in a cell viability assay.
# [35] = test system: SHP77; format: functional, cell-based, Homo sapiens, SHP-77; conditions: Homo sapiens, SHP77;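 note: growth inhibition of human SHP-77 cells measured by a cell viability assay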
# Description: SANGER: Inhibition of human SHP-77 cell growth in a cell viability assay.
# [36] = test system: SW13; format: functional, cell-based, Homo sapiens; conditions: Homo sapiens, SW13;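 note: IC50 is inhibition of SW13 cell growth, read out with a cell viability assay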
# Description: SANGER: Inhibition of human SW13 cell growth in a cell viability assay.
# [37] = test system: SW1463; format: functional, cell-based, Homo sapiens; conditions: Homo sapiens, SW1463;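 note: growth inhibition of SW1463 cells, determined with a cell viability assay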
# Description: SANGER: Inhibition of human SW1463 cell growth in a cell viability assay.
# [38] = test system: SW1710; format: functional, cell-based, Homo sapiens; conditions: Homo sapiens, SW1710;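 note: growth inhibition of SW1710 cells, determined with a cell viability assay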
# Description: SANGER: Inhibition of human SW1710 cell growth in a cell viability assay.
# [39] = test system: SW48; format: functional, cell-based, Homo sapiens; conditions: Homo sapiens, SW48;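 note: growth inhibition of SW48 cells, read out with a cell viability assay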
# Description: SANGER: Inhibition of human SW48 cell growth in a cell viability assay.
# [40] = test system: SAOS-2; format: functional, cell-based, Homo sapiens; conditions: Homo sapiens, SAOS-2;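 note: growth inhibition of human Saos-2 cells determined by a cell viability assay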
# Description: SANGER: Inhibition of human Saos-2 cell growth in a cell viability assay.
# [41] = test system: 8305C; format: functional, cell-based, Homo sapiens; conditions: Homo sapiens, 8305C
# Description: SANGER: Inhibition of human 8305C cell growth in a cell viability assay.
# [42] = test system: A101D; format: functional, cell-based, Homo sapiens; conditions: Homo sapiens, A101D;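 note: growth inhibition of the cell line, measured with a viability assay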
# Description: SANGER: Inhibition of human A101D cell growth in a cell viability assay.
# [43] = test system: AGS; format: functional, cell-based, Homo sapiens; conditions: Homo sapiens, AGS;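 note: growth inhibition of AGS cells, determined with a cell viability assay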
# Description: SANGER: Inhibition of human AGS cell growth in a cell viability assay.
# [44] = test system: BT-20; format: functional, cell-based, Homo sapiens; conditions: Homo sapiens, BT-20;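 note: cell viability assay measuring suppression of growth in human BT-20 cells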
# Description: SANGER: Inhibition of human BT-20 cell growth in a cell viability assay.
# [45] = test system: CAL-27; format: functional, cell-based, Homo sapiens; conditions: Homo sapiens, CAL-27;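 note: Viability-based readout, IC50 reflecting inhibition of CAL-27 cell growth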
# Description: SANGER: Inhibition of human CAL-27 cell growth in a cell viability assay.
# [46] = test system: U-266; format: functional, cell-based; conditions: Homo sapiens
# Description: SANGER: Inhibition of human U-266 cell growth in a cell viability assay.
# [47] = test system: U-87 MG; format: functional, cell-based, U-87MG ATCC; conditions: Homo sapiens;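 note: growth inhibition of the cells measured with a viability assay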
# Description: SANGER: Inhibition of human U-87-MG cell growth in a cell viability assay.
# [48] = test system: no-10; format: functional, cell-based, Homo sapiens; conditions: Homo sapiens;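 note: growth inhibition of no-10 cells, read out with a cell viability assay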
# Description: SANGER: Inhibition of human no-10 cell growth in a cell viability assay.
# [49] = test system: no-11; format: functional, cell-based, Homo sapiens; conditions: Homo sapiens;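 note: growth inhibition of human NO-11 cells, read out with a cell viability assay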
# Description: SANGER: Inhibition of human no-11 cell growth in a cell viability assay.
# [50] = test system: CAMA-1; format: functional, cell-based, Homo sapiens; conditions: Homo sapiens, CAMA-1;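 note: growth inhibition of CAMA-1 cells, read out with a cell viability assay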
# Description: SANGER: Inhibition of human CAMA-1 cell growth in a cell viability assay.
# [51] = test system: CGTH-W-1; format: functional, cell-based, Homo sapiens; conditions: Homo sapiens, CGTH-W-1;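 note: growth inhibition of human CGTH-W-1 cells measured by cell viability assay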
# Description: SANGER: Inhibition of human CGTH-W-1 cell growth in a cell viability assay.
# [52] = test system: NCI-H510A; format: functional, cell-based; conditions: Homo sapiens;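 note: growth inhibition of NCI-H510A cells, read out with a cell viability assay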
# Description: SANGER: Inhibition of human NCI-H510A cell growth in a cell viability assay.
structure (smiles),measurement,setting,value
COc1ccc(C2=N[C@@H](c3ccc(Cl)cc3)[C@@H](c3ccc(Cl)cc3)N2C(=O)N2CCNC(=O)C2)c(OC(C)C)c1 [NUTLIN-3],IC50,[1],> 8 µM
same,IC50,[2],2.02 µM
same,IC50,[3],> 8 µM
same,IC50,[4],> 8 µM
same,IC50,[5],> 8 µM
same,IC50,[6],> 8 µM
same,IC50,[7],> 8 µM
same,IC50,[8],> 8 µM
same,IC50,[9],> 8 µM
same,IC50,[10],> 8 µM
same,IC50,[11],> 8 µM
same,IC50,[12],> 8 µM
same,IC50,[13],6.79 µM
same,IC50,[14],> 8 µM
same,IC50,[15],> 8 µM
same,IC50,[16],> 8 µM
same,IC50,[17],> 8 µM
same,IC50,[18],> 8 µM
same,IC50,[19],> 8 µM
same,IC50,[20],> 8 µM
same,IC50,[21],> 8 µM
same,IC50,[22],4.63 µM
same,IC50,[23],> 8 µM
same,IC50,[24],> 8 µM
same,IC50,[25],> 8 µM
same,IC50,[26],> 8 µM
same,IC50,[27],1.05 µM
same,IC50,[28],> 8 µM
same,IC50,[29],> 8 µM
same,IC50,[30],3.54 µM
same,IC50,[31],6.42 µM
same,IC50,[32],> 8 µM
same,IC50,[33],> 8 µM
same,IC50,[34],> 8 µM
same,IC50,[35],> 8 µM
same,IC50,[36],> 8 µM
same,IC50,[37],> 8 µM
same,IC50,[38],> 8 µM
same,IC50,[39],> 8 µM
same,IC50,[40],> 8 µM
same,IC50,[41],> 8 µM
same,IC50,[42],2.35 µM
same,IC50,[43],6.15 µM
same,IC50,[44],> 8 µM
same,IC50,[45],> 8 µM
same,IC50,[46],> 8 µM
same,IC50,[47],> 8 µM
same,IC50,[48],> 8 µM
same,IC50,[49],> 8 µM
same,IC50,[50],> 8 µM
same,IC50,[51],> 8 µM
O=c1cc(-c2cccc3c2Sc2ccccc2S3)oc(N2CCOCC2)c1 [KU-55933],IC50,[1],> 10 µM
same,IC50,[2],> 10 µM
same,IC50,[3],> 10 µM
same,IC50,[4],> 10 µM
same,IC50,[5],> 10 µM
same,IC50,[6],> 10 µM
same,IC50,[7],> 10 µM
same,IC50,[8],> 10 µM
same,IC50,[9],> 10 µM
same,IC50,[10],> 10 µM
same,IC50,[11],> 10 µM
same,IC50,[12],> 10 µM
same,IC50,[13],> 10 µM
same,IC50,[15],> 10 µM
same,IC50,[16],> 10 µM
same,IC50,[17],> 10 µM
same,IC50,[18],> 10 µM
same,IC50,[19],> 10 µM
same,IC50,[20],> 10 µM
same,IC50,[21],> 10 µM
same,IC50,[22],> 10 µM
same,IC50,[23],> 10 µM
same,IC50,[24],> 10 µM
same,IC50,[25],> 10 µM
same,IC50,[26],> 10 µM
same,IC50,[27],> 10 µM
same,IC50,[28],> 10 µM
same,IC50,[29],> 10 µM
same,IC50,[30],> 10 µM
same,IC50,[31],> 10 µM
same,IC50,[32],> 10 µM
same,IC50,[33],> 10 µM
same,IC50,[34],> 10 µM
same,IC50,[35],> 10 µM
same,IC50,[36],> 10 µM
same,IC50,[37],> 10 µM
same,IC50,[38],> 10 µM
same,IC50,[39],> 10 µM
same,IC50,[40],> 10 µM
same,IC50,[41],> 10 µM
same,IC50,[42],> 10 µM
same,IC50,[43],> 10 µM
same,IC50,[44],> 10 µM
same,IC50,[45],> 10 µM
same,IC50,[46],> 10 µM
same,IC50,[47],> 10 µM
same,IC50,[48],> 10 µM
same,IC50,[49],> 10 µM
same,IC50,[50],> 10 µM
same,IC50,[51],> 10 µM
CN(Cc1cnc2nc(N)nc(N)c2n1)c1ccc(C(=O)N[C@@H](CCC(=O)O)C(=O)O)cc1 [METHOTREXATE],IC50,[1],0.162 µM
same,IC50,[2],0.0162 µM
same,IC50,[3],> 0.2 µM
same,IC50,[4],> 0.2 µM
same,IC50,[5],> 0.2 µM
same,IC50,[6],> 0.2 µM
same,IC50,[7],> 0.2 µM
same,IC50,[8],0.01 µM
same,IC50,[9],> 0.2 µM
same,IC50,[10],> 0.2 µM
same,IC50,[11],> 0.2 µM
same,IC50,[12],> 0.2 µM
same,IC50,[13],> 0.2 µM
same,IC50,[14],> 0.2 µM
same,IC50,[15],> 0.2 µM
same,IC50,[16],0.0606 µM
same,IC50,[17],0.0132 µM
same,IC50,[18],> 0.2 µM
same,IC50,[19],> 0.2 µM
same,IC50,[20],> 0.2 µM
same,IC50,[21],> 0.2 µM
same,IC50,[22],> 0.2 µM
same,IC50,[52],> 0.2 µM
same,IC50,[23],> 0.2 µM
same,IC50,[24],> 0.2 µM
same,IC50,[25],> 0.2 µM
same,IC50,[26],> 0.2 µM
same,IC50,[27],0.0077 µM
same,IC50,[28],> 0.2 µM
same,IC50,[29],> 0.2 µM
same,IC50,[30],> 0.2 µM
same,IC50,[31],> 0.2 µM
same,IC50,[32],> 0.2 µM
same,IC50,[33],> 0.2 µM
same,IC50,[34],> 0.2 µM
same,IC50,[35],> 0.2 µM
same,IC50,[36],> 0.2 µM
same,IC50,[37],> 0.2 µM
same,IC50,[38],> 0.2 µM
same,IC50,[39],> 0.2 µM
same,IC50,[40],> 0.2 µM
same,IC50,[41],0.196 µM
same,IC50,[42],> 0.2 µM
same,IC50,[44],> 0.2 µM
same,IC50,[45],> 0.2 µM
same,IC50,[46],> 0.2 µM
same,IC50,[47],> 0.2 µM
same,IC50,[48],> 0.2 µM
same,IC50,[49],> 0.2 µM
same,IC50,[50],> 0.2 µM
same,IC50,[51],0.0312 µM
